# Measurements from US20210259954A1, “CILIA-TARGETING NANOPARTICLES” (Chapman University, priority 2019, published 2021).
# Experiments:
# primary cilia [1] = test: In vitro cilia length, immunocytochemistry (Example 2); format: cell-based, porcine; conditions: 16 h of treatment
# Method: Immunocytochemistry and confocal microscopy. For the in vitro cilia length measurements, cells were grown on the Formvar® polymer, as mentioned above. […] Fenoldopam-alone was also used as another control. […] An antibody against acetylated-α-tubulin (1:10,000 dilution, Sigma-Aldrich) and the secondary antibodies were also diluted in 10% FBS to decrease the background florescence; a FITC-conjugated secondary antibody (1:1000; Pierce) was used. Cells were then washed three times for 5 minutes each with cacodylate buffer and sealed with mounting media containing DAPI (Vector Laboratories). […] Images were processed using NIS-Elements High Content AR 4.30.02 (Nikon). Automated image acquisition (ND acquisition) was conducted under the same ×60 magnification (selected area capturing option) field and Z-stack (0.1 μm slices) settings to create a 3D video. All imaging and video acquisition times and the microscope stage were automatically controlled (XY, XZ and YZ) by an automated perfect focusing system (PFS). The in vivo cilia length measurements and NP localizations in the zebrafish and mouse tissues were performed using the same method.
# [2] = test system: Tie2Cre⋅Pkd2^flox/flox mice; test: Working heart perfusion system, hearts of treated Pkd2 mice (Example 1); format: in vivo, mouse; conditions: for CO, cardiac output / EDPVR, end-diastolic pressure volume relation / EF, ejection fraction / ESPVR, end-systolic pressure volume relation / HR, heart rate / LV EDP, end-diastolic pressure / LV EDV, end-diastolic volume / LV ESP, end-systolic pressure / LV ESV, end-systolic volume / LV Pmax, systolic pressure / SV, stroke volume / SW, stroke work / dP/dtmax, maximum rate of LV pressure rise / dP/dtmin, maximum rate of LV pressure fall: Pkd2 heart
# Method: One-week-old Tie2Cre⋅Pkd2^WT/WT (with cre activation; control group) or Tie2Cre⋅Pkd2^flox/flox (without cre activation; control group), and Tie2Cre⋅Pkd2^flox/flox (with cre activation; experimental group) mice were injected intra-peritoneally with 5 μg/μL tamoxifen every day for five consecutive days. […] The mice were next injected with PBS (control), CT-DAu-NPs or CT-PLGA-NPs (0.5 to 2.0 mg/kg body weight) via intravenous (IV) injections. […] The mice were treated every 72 hours with different NPs for 8 weeks.
# Working Heart Perfusion System. To study heart function independently from neuronal innervation or humoral effect, ex vivo heart parameters were collected using a mouse working heart system from Emka Technologies. This system collected data of the cardiac contractile strength, electrical heart propagation (ECG; electrocardiogram) and other cardiac functions, including the heart rate (HR), left ventricle pressure (LVP), left ventricular volume (LVV), left atrial pressure (LAP), aortic out flow (AOF), stroke volume (SV), cardiac output (CO), end diastolic/systolic volume (Edv-Esv), rate of left atrial pressure raise (+dp/dt) and fall (−dt/dt), preload, afterload, and main aortic pressure. Heparin (100 units, IP), xylazine (10-15 mg/kg, IP), and ketamine (200-350 mg/kg, IP) were used to prevent blood coagulation in the coronary arteries and to anesthetize the mice. After cannulation, the heart was perfused with Krebs-Ringer superfusion solution (in mM: 125 NaCl, 2.5 KCl, 1.25 NaH2PO4, 2 CaCl2, 1 MgCl2, 25 NHCO3 and 25 glucose). Throughout the experiment, the solution was continuously bubbled with carbogen (95% O2 and 5% CO2) to reach 7.4 pH at 38° C. Stress tests were performed in the heart by perfusing epinephrine (4 μg/L) or diltiazem (0.08 μg/L). The cardiac function was plotted in a loop diagram showing the LVV-LVP relationship (volume-pressure loop).
# [3] = test system: Tie2Cre⋅Pkd2^flox/flox mice; test: Endothelia-specific Pkd2 knockout hypertensive mouse model, 8-week treatment (Example 1); format: in vivo
# Method: One-week-old Tie2Cre⋅Pkd2^WT/WT (with cre activation; control group) or Tie2Cre⋅Pkd2^flox/flox (without cre activation; control group), and Tie2Cre⋅Pkd2^flox/flox (with cre activation; experimental group) mice were injected intra-peritoneally with 5 μg/μL tamoxifen every day for five consecutive days. […] The overall process for the preparation of the final nano-formulation for the animal studies included the following steps. The lyophilized antibody conjugated and drug-loaded CT-DAu-NPs or CT-PLGA-NP powders were first brought to the room temperature from a storage at −50° C. […] The formulations were mixed by vortex for 2 minutes followed by filtration of 0.2 μm. […] The mice were treated every 72 hours with different NPs for 8 weeks. Blood pressure from four-week-old mice was taken with the non-invasive tail-cuff method using the CODA system (Kent Scientific). Blood pressure was measured twice daily for the duration of the study after the initial three days of acclimating each mouse to the cuff. At the end of the 12 weeks of treatment, the hematology parameters, including the blood urea nitrogen (BUN) and plasma nitrate/nitrite measurements, were examined. BUN assays were conducted using a calorimetric kit (Arbor Assays). Plasma nitrate/nitrite concentrations were quantified using a nitrate/nitrite assay kit (Cayman). All steps were followed according to the manufacturer's instructions. […] Then, the tissues were dehydrated using buffered ethanol, and xylene. Finally, the tissues were embedded in wax, sectioned (4 μm, Microtome, HM-3555, Thermo Scientific) and were subsequently stained with standard hematoxylin and eosin (H&E). The pathology slices were observed and imaged using a KEYENCE-BZ-X710 microscope. Mouse heart sections were stained with Masson's Trichrome to detect fibrosis using a Masson's Trichrome Stain Kit (Polysciences, Inc.).
# [4] = Pharmacokinetics of fenoldopam in mice (Example 1); format: in vivo, mouse; conditions: 30-minute infusion vs bolus of fenoldopam-loaded CTNDDS
# Method: The pharmacokinetics of different NPs treated mice were studied. […] All drugs were extracted from plasma samples and HPLC analysis performed. In the biodistribution studies, whole organs from the fluorescent-labelled NPs treated mice (heart, kidney, liver, spleen and lung) were collected, homogenized and measured for fluorescence intensity to assess the amount of NP distribution in different organs at 24- and 72-hours after treatments. For the in vivo toxicity studies, 200 μL of blood samples were collected from different treatments (PBS, CT-DAu-NPs or CT-PLGA-NPs). Biochemistry was performed using biochemical analyzer (VetScan VS2).
# primary cilia [5] = test: In vitro cilia length, acetylated-α-tubulin immunofluorescence (Example 1); format: cell-based; conditions: after 16 hours, vs corresponding controls
# Method: Immunocytochemistry. For the in vitro cilia length measurements, cells were grown on the Formvar® polymer, as mentioned above. Primary cilia consisting of acetylated microtubule structures were measured by direct immunofluorescence with acetylated-α-tubulin staining with 0, 2, 4, 8, 16, 24 and 32 hours of incubation with different concentrations (0.1-5 μg/mL) of CT-DAu-NPs or CT-PLGA-NPs. Likewise, materials without fenoldopam loading were used as corresponding controls for the CTNDDSs (cCT-DAu-NPs and cCT-PLGA-NPs) and also fenoldopam alone used. The cells were rinsed with sodium cacodylate buffer, fixed with 3% glutaraldehyde in 0.2 M sodium cacodylate buffer for 10 minutes, and permeabilized with 1% Triton-X in sodium cacodylate for 5 min. Acetylated-α-tubulin (1:10,000 dilution, Sigma) and the secondary antibodies were also diluted in 10% FBS to decrease the background florescence; FITC fluorescence secondary antibody (1:1000; Pierce, Inc.) was used. The cells were then washed three times for 5 minutes each with cacodylate buffer and mounted with DAPI (Vector laboratories). Confocal microscopic images were obtained using an inverted Nikon Eclipse Ti confocal microscope.
smiles,measurement,setting,value
"Oc1ccc(C2CNCCc3c2cc(O)c(O)c3Cl)cc1 (stereo not shown) [Fenoldopam, fenoldopam]",cilia length,primary cilia [1],increased the cilia length
same,"CO, cardiac output",[2]; diltiazem stress,1873 ± 70 µL/min
same,"EDPVR, end-diastolic pressure volume relation",[2]; diltiazem stress,0.14 ± 0.01 mmHg/μL
same,"EF, ejection fraction",[2]; diltiazem stress,51.6 ± 1.4%
same,"ESPVR, end-systolic pressure volume relation",[2]; diltiazem stress,2.3 ± 0.1 mmHg/μL
same,"HR, heart rate",[2]; diltiazem stress,98 ± 9 beat/min
same,"LV EDP, end-diastolic pressure",[2]; diltiazem stress,5.7 ± 0.2 mmHg
same,"LV EDV, end-diastolic volume",[2]; diltiazem stress,40.3 ± 0.8 µL
same,"LV ESP, end-systolic pressure",[2]; diltiazem stress,33.5 ± 0.5 mmHg
same,"LV ESV, end-systolic volume",[2]; diltiazem stress,19.5 ± 0.6 µL
same,"LV Pmax, systolic pressure",[2]; diltiazem stress,44.7 ± 0.7 mmHg
same,"SV, stroke volume",[2]; diltiazem stress,20.8 ± 0.8 µL
same,"SW, stroke work",[2]; diltiazem stress,812 ± 29 mmHg · μL
same,"dP/dtmax, maximum rate of LV pressure rise",[2]; diltiazem stress,4020 ± 643 mmHg/s
same,"dP/dtmin, maximum rate of LV pressure fall",[2]; diltiazem stress,−1537 ± 97 mmHg/s
same,"CO, cardiac output",[2]; epinephrine stress,6810 ± 347 µL/min
same,"EDPVR, end-diastolic pressure volume relation",[2]; epinephrine stress,0.16 ± 0.01 mmHg/μL
same,"EF, ejection fraction",[2]; epinephrine stress,77.7 ± 2.0%
same,"ESPVR, end-systolic pressure volume relation",[2]; epinephrine stress,9.7 ± 0.9 mmHg/μL
same,"HR, heart rate",[2]; epinephrine stress,219 ± 44 beat/min
same,"LV EDP, end-diastolic pressure",[2]; epinephrine stress,6.4 ± 0.5 mmHg
same,"LV EDV, end-diastolic volume",[2]; epinephrine stress,39.9 ± 0.1 µL
same,"LV ESP, end-systolic pressure",[2]; epinephrine stress,63.2 ± 0.3 mmHg
same,"LV ESV, end-systolic volume",[2]; epinephrine stress,8.9 ± 0.8 µL
same,"LV Pmax, systolic pressure",[2]; epinephrine stress,84.3 ± 0.4 mmHg
same,"SV, stroke volume",[2]; epinephrine stress,31.1 ± 0.7 µL
same,"SW, stroke work",[2]; epinephrine stress,2417 ± 28 mmHg · μL
same,"dP/dtmax, maximum rate of LV pressure rise",[2]; epinephrine stress,16864 ± 85 mmHg/s
same,"dP/dtmin, maximum rate of LV pressure fall",[2]; epinephrine stress,−3843 ± 277 mmHg/s
same,"CO, cardiac output",[2]; vehicle,3486 ± 81 µL/min
same,"EDPVR, end-diastolic pressure volume relation",[2]; vehicle,0.13 ± 0.01 mmHg/μL
same,"EF, ejection fraction",[2]; vehicle,62.5 ± 0.2%
same,"ESPVR, end-systolic pressure volume relation",[2]; vehicle,4.4 ± 0.1 mmHg/μL
same,"HR, heart rate",[2]; vehicle,140 ± 24 beat/min
same,"LV EDP, end-diastolic pressure",[2]; vehicle,5.0 ± 0.1 mmHg
same,"LV EDV, end-diastolic volume",[2]; vehicle,40.0 ± 0.1 µL
same,"LV ESP, end-systolic pressure",[2]; vehicle,49.7 ± 1.5 mmHg
same,"LV ESV, end-systolic volume",[2]; vehicle,15.0 ± 0.1 µL
same,"LV Pmax, systolic pressure",[2]; vehicle,66.3 ± 2.0 mmHg
same,"SV, stroke volume",[2]; vehicle,24.9 ± 0.1 µL
same,"SW, stroke work",[2]; vehicle,1530 ± 20 mmHg · μL
same,"dP/dtmax, maximum rate of LV pressure rise",[2]; vehicle,7157 ± 211 mmHg/s
same,"dP/dtmin, maximum rate of LV pressure fall",[2]; vehicle,−1624 ± 24 mmHg/s
same,LVP/LVV abnormalities (P-V loops),[2]; Pkd2 hearts,Both CTNDDS but not fenoldopam-alone corrected these abnormalities
same,arrhythmia (ECG),"[2]; Pkd2 hearts, 8-week treatment",could be corrected with 8-week treatment of CTNDDS but not fenoldopam-alone
same,cilia length in aorta and heart,[3]; 24 or 72 hours after treatment,increased by CTNDDS but not fenoldopam
same,blood urea nitrogen (BUN),[3]; Pkd2 mice,could not be corrected
same,plasma nitrate/nitrite,[3]; Pkd2 mice,could not be corrected
same,acute blood pressure and heart rate,"[3]; Pkd2 mice, 10-minute infusion",significantly decreased blood pressure followed by reflex tachycardia
same,"blood pressure (SBP, MAP)","[3]; hypertensive Pkd2 mice, every 3 days for 8 weeks",no long-term effect
same,"total plasma concentration of fenoldopam (area under the curve, one hour)",[4],significantly higher
same,cilia length,primary cilia [5],significantly increased cilia length
